In patent US20150290192A1, “INHIBITORS OF BRUTON'S TYROSINE KINASE” (HOFFMANN-LA ROCHE INC., priority 2012, published 2015):
Marks after values point to notes of the source that are not given here.

Assays:
Pharmacokinetics in rat = assay type: in vivo
[1] = system: OVA sensitized and challenged mice, allergen-induced bronchoconstriction; assay: Ovalbumin-induced allergic airway disease: allergen-induced bronchoconstriction
[2] = system: OVA sensitized and challenged mice, airway eosinophilia; assay: Ovalbumin-induced allergic airway disease: allergen-induced airway eosinophilia; assay type: in vivo, mouse; conditions: for % reduction in airway eosinophilia: Inhaled, mOVA40
Description: The mouse model of ovalbumin-induced allergic airway disease was employed to assess the effects of Compound 1 on allergen-induced bronchoconstriction and allergen-induced airway inflammation. Briefly, mice (male; BALB/c; 7-9 weeks of age) were immunized i.p. with […] of ovalbumin (OVA) in 0.2 ml of Alum (2% Al(OH)3 in water, Serva, Heidelberg, Germany) on days 0 and 14. Control animals received Alum only. On days 21-23, animals were exposed for 20 min to a nebulized (Proneb Ultra II, PARI Respiratory Equipment, Midlothian, Va.,) aerosol of 1% OVA (10 mg/ml) in phosphate-buffered saline (PBS), to establish the inflammatory process within the lung; or PBS alone as a control. For studies where intranasal dosing was used, mice were anesthetized with isoflurane and intranasally (i.n.) administered vehicle (20% propylene glycol) or Compound 1 (0.3 mg/kg) one hour prior to each aerosolized OVA challenge.
For studies using inhalation delivery, Compound 1 was micronized by a jet mill (MC One Jet Mill, Jetpharma USA Inc., South Plainfield, N.J.) and the dry powder aerosol was generated using a Wright dust feed dry powder aerosol generator. The micronized drug powder was packed into a cylindrical reservoir using a hydraulic press at approximately 1000 psi to produce compacted cakes of powder used as input by the Wright dust feed. The dust feed creates and aerosol that is passed through a sonic nozzle for de-agglomeration and into a cyclone to remove non-respirable particles and agglomerates. The cyclone output passed into the TSE nose-only rodent exposure system. Dose groups of mice were exposed to the aerosol test atmosphere for 5, 15, or 45 minutes. […] The particle size distribution for each exposure was evaluated by collecting aerosol samples with an eight stage cascade impactor. […] Impactor data were mathematically evaluated to determine the Mass Median Aerodynamic Diameter (MMAD) and Geometric Standard Deviation (GSD) of 6-tert-Butyl-2-[2-hydroxymethyl-3-(5-{5-[(2-methoxy-ethylamino)-methyl]-pyridin-2-ylamino}-1-methyl-6-oxo-1,6-dihydro-pyridin-3-yl)-phenyl]-3,4-dihydro-2H-isoquinolin-1-one using graphical analysis of an assumed lognormal distribution. The estimated deposited dose of Compound 1 was calculated using a minute volume for the mouse of 0.026 liters per minute and the pulmonary deposition fraction was determined from the MMAD. […]
To study the effects of Compound 1 on airway inflammation, after the three 1% OVA challenges, a final OVA challenge was given as an aerosol solution of 5% OVA in PBS (50 mg/ml) or PBS alone for 20 min. […] The lungs were lavaged and airway inflammation was evaluated as previously described by performing total and differential cell counts [Harris et al., 2012, Mucosal Immunology]. […]

[3] = Pharmacokinetics in mouse; assay type: in vivo
Btk kinase = Btk kinase (Homo sapiens, UniProt Q06187); assay: Btk Biacore binding assay
Description: Analyses were performed on a Biacore T-100. Btk kinase was avi-tagged and co-expressed in baculovirus with biotin ligase to generate single site biotinylated Btk (Avidity, LLC). Biotinylated target was captured on Biacore streptavidin sensor chips (Series S Sensor Chip SA) at densities of ˜10000 resonance units (1 ru˜1 pg protein/mm2). […] Compounds were injected for 100 seconds association time and dissociation was followed for 20 min.

[4] = system: mice, poly I:C-induced airway neutrophilia; assay: Poly I:C induced steroid-resistant airway inflammation (neutrophilia); assay type: in vivo, mouse; conditions: for % reduction in airway neutrophilia: Inhaled
Description: Compound 1's effects on airway inflammation induced by a synthetic form of double-stranded RNA, polyinosine-polycytidylic acid (Poly I:C) were assessed. […] To perform this experiment, mice (male; BALB/c; 7-9 weeks of age) were anesthetized with isoflurane and intranasally (i.n.) administered saline or poly I:C ([…]) and airway inflammation was evaluated 24 hours later as previously described [Harris et al., 2012, Mucosal Immunology]. Compound 1 inhibited poly I:C-induced airway neutrophilia in a dose-dependent (Table 6). These reductions in neutrophils were consistent with reductions in the levels of neutrophil chemoattractants in the lavage fluid (Table 4).

Btk kinase, sequence (Q06187 whole entry): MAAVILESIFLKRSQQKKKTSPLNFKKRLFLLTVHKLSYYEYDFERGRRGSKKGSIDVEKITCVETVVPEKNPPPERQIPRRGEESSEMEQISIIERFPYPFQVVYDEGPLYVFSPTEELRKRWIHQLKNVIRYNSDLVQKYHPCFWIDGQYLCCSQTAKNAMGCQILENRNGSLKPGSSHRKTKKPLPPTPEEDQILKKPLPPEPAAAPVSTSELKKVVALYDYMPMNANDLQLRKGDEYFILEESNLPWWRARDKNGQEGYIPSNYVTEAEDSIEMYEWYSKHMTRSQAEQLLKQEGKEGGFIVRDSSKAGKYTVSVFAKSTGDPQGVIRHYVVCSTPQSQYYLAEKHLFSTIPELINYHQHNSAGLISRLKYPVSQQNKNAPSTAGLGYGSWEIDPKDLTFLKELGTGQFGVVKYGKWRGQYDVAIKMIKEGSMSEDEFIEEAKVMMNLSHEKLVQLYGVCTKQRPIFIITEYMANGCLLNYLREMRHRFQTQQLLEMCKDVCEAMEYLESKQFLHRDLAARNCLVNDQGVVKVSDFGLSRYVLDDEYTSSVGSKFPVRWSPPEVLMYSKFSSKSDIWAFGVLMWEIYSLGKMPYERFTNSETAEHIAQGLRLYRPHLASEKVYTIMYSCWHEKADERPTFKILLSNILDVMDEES

SMILES: CN1CCC(c2ccc(Nc3cc(-c4ccnc(-n5ncc6cc(C(C)(C)C)cc(F)c6c5=O)c4CO)nn(C)c3=O)nc2)CC1 [Compound 1, 6-tert-Butyl-8-fluoro-2-{3-hydroxymethyl-4-[1-methyl-5-(1′-methyl-1′,2′,3′,4′,5′,6′-hexahydro-[3,4′]bipyridinyl-6-ylamino)-6-oxo-1,6-dihydro-pyridazin-3-yl]-pyridin-2-yl}-2H-phthalazin-1-one]
- CL (Pharmacokinetics in rat; 1.0 mg/kg (iv)): high
- Oral Bioavailability (Pharmacokinetics in rat; 1.0 (iv), 2.0 (po) mg/kg): low
- clearance (Pharmacokinetics in rat; plasma, 1.0 mg/kg (iv)): 75.8 mL/min/kg
- bioavailability (Pharmacokinetics in rat; plasma, 2 mg/kg, 1.0 (iv), 2.0 (po) mg/kg): 2%
- % reduction in airway resistance (R) ([1]; Inhaled, delivered dose 1.0 mg/kg, deposited dose 0.03 mg/kg, mOVA36): 44%
- % reduction in airway resistance (R) ([1]; Inhaled, delivered dose 2.7 mg/kg, deposited dose 0.1 mg/kg, mOVA36): 59* %
- % reduction in airway resistance (R) ([1]; Inhaled, delivered dose 8.6 mg/kg, deposited dose 0.3 mg/kg, mOVA36): 86* %
- % reduction in airway resistance (R) ([1]; Intranasal, delivered dose 0.3 mg/kg, deposited dose 0.3 mg/kg): 85* %
- OVA-induced increase in R ([1]; administered i.n. or delivered as a dry powder formulation by inhalation): effectively inhibited
- % reduction in airway eosinophilia ([2]; delivered dose 0.09 mg/kg, deposited dose .003 mg/kg): 82* %
- % reduction in airway eosinophilia ([2]; delivered dose 0.27 mg/kg, deposited dose .010 mg/kg): 83* %
- % reduction in airway eosinophilia ([2]; delivered dose 0.81 mg/kg, deposited dose .030 mg/kg): 84* %
- OVA-induced increase in the numbers of eosinophils recovered in the lavage fluid ([2]; dry powder formulation by inhalation): effectively inhibited
- CL ([3]; 1.0 mg/kg (iv)): moderate
- Oral Bioavailability ([3]; 1.0 (iv), 10 (po) mg/kg): low
- clearance ([3]; plasma, 1.0 mg/kg (iv)): 26 mL/min/kg
- bioavailability ([3]; plasma, 10 mg/kg, 1.0 (iv), 10 (po) mg/kg): 12%
- Kd (Btk kinase): 0.408 nM
- off rate (Btk kinase; Biacore): very slow
- kon (Btk kinase; read-out: Biacore Ka): 886000 M⁻¹ s⁻¹
- % reduction in airway neutrophilia ([4]; delivered dose 0.09 mg/kg, deposited dose .003 mg/kg, mPolyIC-3-12): 17%
- % reduction in airway neutrophilia ([4]; delivered dose 0.27 mg/kg, deposited dose .010 mg/kg, mPolyIC-3-12): 22%
- % reduction in airway neutrophilia ([4]; delivered dose 0.81 mg/kg, deposited dose .030 mg/kg, mPolyIC-3-12): 67* %
- % reduction in airway neutrophilia ([4]; delivered dose 8.6 mg/kg, deposited dose 0.3 mg/kg, mPolyIC-5-12): 83* %
- poly I:C-induced airway neutrophilia ([4]; dose-dependent): inhibited
- levels of neutrophil chemoattractants in the lavage fluid ([4]; mouse, in vivo): reductions
